{"source": "patent US9783545B2", "about": "“Pyrazolopyridazines and methods for treating retinal-degenerative diseases and hearing loss associated with usher syndrome” (Usher III Initiative, Inc., priority 2012, dated 2017)", "data": [{"target": "T1, N48K Clarin-1 (Homo sapiens, UniProt P58418, N48K)", "T1 construct": "expressed in transfected cells", "T1 sequence (P58418 1-232 N48K)": "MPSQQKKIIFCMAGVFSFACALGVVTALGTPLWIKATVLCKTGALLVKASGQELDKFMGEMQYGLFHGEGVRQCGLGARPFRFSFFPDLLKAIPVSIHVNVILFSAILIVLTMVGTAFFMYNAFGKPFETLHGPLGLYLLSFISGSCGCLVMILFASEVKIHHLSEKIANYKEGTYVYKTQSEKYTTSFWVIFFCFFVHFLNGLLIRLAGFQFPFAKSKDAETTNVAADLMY", "test": "Restoration of expression of N48K Clarin-1, 24 hour incubation (high content imaging of HA-tagged N48K Clarin-1)", "type": "cell-based", "set-up": "IC50: scale not given here", "conditions": "HEK293-Clarin-1 N48K-HA D9 cell line, 24 hr incubation with compound", "experimental": "(§1) Assay Method Showing Activity of Compounds of the Invention that Restore Expression of N48K Clarin-1 (24 hour incubation)\n(§2) Clarin-1 is the protein encoded by the gene mutated in Usher III Syndrome (Adato et al., 2002). The most prevalent mutation in Clarin-1 in North America is N48K, which is reported to cause loss of glycosylation and a trafficking defect (Tian et al., 2009). […] Thus it is believed that restoring the trafficking of N48K Clarin-1 to the cell surface provides an avenue of intervention for Usher III Sydrome.\n(§3) In a typical experiment, these cells were seeded on collagen-coated 96-well plates at a cell density of 20,000 cells per well in Dulbecco's Modified Eagle Medium (DMEM) contain 10% fetal bovine serum in a humidified incubator at 37° C., 5% CO2. After an overnight incubation, compounds were added for a 24 hr incubation in DMEM medium contain 10% fetal bovine serum in a humidified incubator at 37° C., 5% CO2. As a negative control, DMSO was used at 0.25% final concentrations. Compounds were typically tested in triplicate fashion. After the 24 hr incubation with compounds, the cells were fixed by the addition of 10% buffered formalin to the wells to achieve a final concentration of 4% formalin. After a 20 min fixation at room temperature, wells were washed three times with phosphate-buffered saline (PBS) containing Triton X-100 (0.02 phosphate, 150 mM NaCl, 0.1% Triton X-100).\n(§4) The HA-tagged N48K Clarin-1 was detected with an antibody against the HA tag (HA.11 Clone 16B12 Monoclonal antibody, Covance #MMS-101P) at a dilution of 1:1000 in PBS containing Triton X-100. After a 90 min incubation, wells were washed three times with PBS containing Triton X-100, and a secondary antibody (Goat anti-mouse IgG-Cy3 (1.5 mg/ml), Jackson IR Europe #115165003) was added to the wells at a dilution of 1:250 in PBS containing Triton X-100 for 45 min. Wells were subsequently washed three times with PBS containing Triton X-100, and a final staining for nuclei was performed by the addition of DAPI (4′,6-diamidino-2-phenylindole) at a dilution of 1:10,000. The imaging of the stained cells was performed on an InCell 1000 High Content Imager (GE Healthcare), reading out the Cy3 channel for N48K Clarin-1 and the DAPI channel for nuclei. The images were analyzed and quantitated using a specific algorithm. This algorithm measured the HA-Clarin-1 staining for each cell based on the additional nuclear segmentation of the DAPI signal (FIG. 1). This algorithm measured the intensity per cell, and thus it is less sensitive for variation in cell number. Per well, approximately 2,000 cells were measured to achieve an average density per cell measurement. FIG. 1 illustrates high content analysis. DAPI-stained nuclei are used to perform segmentation of the image into individual cells. The density observed in the N48K Clarin-1 channel (Cy3) is then calculated per cell averaged over a field.", "values": [{"smiles": "OCCn1nc(C2CC2)c2c(Cl)c(-c3ccccc3)nnc21", "note": "[Iff, 2-(4-chloro-3-cyclopropyl-5-phenyl-pyrazolo[3,4-c]pyridazin-1-yl)ethanol]", "IC50": "A, B"}]}, {"target": "T1, N48K Clarin-1", "test": "Restoration of expression of N48K Clarin-1, 24 hour incubation (high content imaging of HA-tagged N48K Clarin-1)", "type": "cell-based", "set-up": "IC50: scale not given here", "conditions": "HEK293-Clarin-1 N48K-HA D9 cell line, 24 hr incubation with compound; read-out: IC50 (the source's name)", "experimental": "as §1, §2, §3, §4", "units": {"EC50": "nM"}, "values": [{"smiles": "Clc1c(-c2ccccc2)nnc2c1c(-c1ccccc1)nn2C1CCOCC1", "note": "[IIe, 4-chloro-3,5-diphenyl-1-tetrahydropyran-4-yl-pyrazolo[3,4-c]pyridazine]", "EC50": "≤ 2000"}, {"smiles": "CN1CCN(CCn2nc(-c3ccc(C(F)(F)F)nc3)c3c(Cl)c(-c4ccccc4)nnc32)CC1", "note": "[Ih, 4-chloro-1-(2-(4-methylpiperazin-1-yl)ethyl)-5-phenyl-3-(6-(trifluoromethyl)pyridin-3-yl)-1H-pyrazolo[3,4-c]pyridazine]", "EC50": "2000 to 5000"}, {"smiles": "O=C(Cn1nc(C2CC2)c2c(Cl)c(-c3ccccc3)nnc21)N1CCCC1", "note": "[Iee, 2-(4-chloro-3-cyclopropyl-5-phenyl-pyrazolo[3,4-c]pyridazin-1-yl)-1-pyrrolidin-1-yl-ethanone]", "EC50": "2000 to 5000"}, {"smiles": "Clc1c(-c2ccccc2)nnc2c1c(-c1ccccc1)nn2Cc1ccccn1", "note": "[IIp, 4-chloro-3,5-diphenyl-1-(2-pyridylmethyl)pyrazolo[3,4-c]pyridazine]", "EC50": "≤ 2000"}, {"smiles": "Cc1nn(CCN2CCN(C)CC2)c2nnc(-c3ccccc3)c(Cl)c12", "note": "[Iv, 4-chloro-3-methyl-1-[2-(4-methylpiperazin-1-yl)ethyl]-5-phenyl-pyrazolo[3,4-c]pyridazine]", "EC50": "≤ 2000"}, {"smiles": "CN1CCN(CCn2nc3nnc(-c4ccccc4)c(Cl)c3c2I)CC1", "note": "[Compound 20, 4-Chloro-3-iodo-2-(2-(4-methylpiperazin-1-yl)ethyl)-5-phenyl-2H-pyrazolo[3,4-c]pyridazine]", "EC50": "5000 to 21000"}, {"smiles": "CN1CCN(CCn2nc(-c3cc4ccccc4[nH]3)c3c(Cl)c(-c4ccccc4)nnc32)CC1", "note": "[Im, 4-chloro-3-(1H-indol-2-yl)-1-(2-(4-methylpiperazin-1-yl)ethyl)-5-phenyl-1H-pyrazolo[3,4-c]pyridazine]", "EC50": "≤ 2000"}, {"smiles": "CN1CCN(CCn2nc(-c3cc4ccccc4o3)c3c(Cl)c(-c4ccccc4)nnc32)CC1", "note": "[Ij, 3-(benzofuran-2-yl)-4-chloro-1-(2-(4-methylpiperazin-1-yl)ethyl)-5-phenyl-1H-pyrazolo[3,4-c]pyridazine]", "EC50": "≤ 2000"}, {"smiles": "Cc1nn(C)c2nnc(-c3cccc(F)c3)c(Cl)c12", "note": "[Compound 25, 4-chloro-5-(3-fluorophenyl)-1,3-dimethyl-pyrazolo[3,4-c]pyridazine]", "EC50": "≤ 2000"}, {"smiles": "Cc1nn(C)c2nnc(-c3ccccc3)c(F)c12", "note": "[Compound 24, 4-fluoro-1,3-dimethyl-5-phenyl-pyrazolo[3,4-c]pyridazine]", "EC50": "≤ 2000"}, {"smiles": "CN1CCN(CCn2ncc3c(Cl)c(-c4ccccc4)nnc32)CC1", "note": "[Ib, 4-Chloro-1-(2-(4-methylpiperazin-1-yl)ethyl)-5-phenyl-1H-pyrazolo[3,4-c]pyridazine]", "EC50": "5000 to 21000"}, {"smiles": "FC(F)(F)Cn1nc(-c2ccccc2)c2c(Cl)c(-c3ccccc3)nnc21", "note": "[IIk, 4-chloro-3,5-diphenyl-1(2,2,2-trifluoroethyl)pyrazolo[3,4-c]pyridazine]", "EC50": "≤ 2000"}, {"smiles": "Cc1nn(CCO)c2nnc(-c3ccccc3)c(Cl)c12", "note": "[Ihh, 2-(4-chloro-3-methyl-5-phenyl-pyrazolo[3,4-c]pyridazin-1-yl)ethanol]", "EC50": "≤ 2000"}, {"smiles": "Clc1c(-c2ccccc2)nnc2[nH]nc(Br)c12", "note": "[Ibb, 3-bromo-4-chloro-5-phenyl-1H-pyrazolo[3,4-c]pyridazine]", "EC50": "2000 to 5000"}, {"smiles": "Cn1nc(-c2ccccc2)c2c(Cl)c(-c3ccsc3)nnc21", "note": "[IIIc, 4-chloro-1-methyl-3-phenyl-5-(3-thienyl)pyrazolo[3,4-c]pyridazine]", "EC50": "≤ 2000"}, {"smiles": "CN1CCN(CCn2nc(-c3ccnc(C(F)(F)F)c3)c3c(Cl)c(-c4ccccc4)nnc32)CC1", "note": "[Ie, 4-chloro-1-(2-(4-methylpiperazin-1-yl)ethyl)-5-phenyl-3-(2-(trifluoromethyl)pyridin-4-yl)-1H-pyrazolo[3,4-c]pyridazine]", "EC50": "≤ 2000"}, {"smiles": "Clc1c(-c2ccccc2)nnc2[nH]nc(C3CC3)c12", "note": "[Idd, 4-chloro-3-cyclopropyl-5-phenyl-1H-pyrazolo[3,4-c]pyridazine]", "EC50": "≤ 2000"}, {"smiles": "CN1CCN(CCn2nc(C3=CCOCC3)c3c(Cl)c(-c4ccccc4)nnc32)CC1", "note": "[If, 4-chloro-3-(3,6-dihydro-2H-pyran-4-yl)-1-(2-(4-methylpiperazin-1-yl)ethyl)-5-phenyl-1H-pyrazolo[3,4-c]pyridazine]", "EC50": "≤ 2000"}, {"smiles": "CN1CCN(CCn2nc(-c3cccc(C(=O)N4CCCC4)c3)c3c(Cl)c(-c4ccccc4)nnc32)CC1", "note": "[Id, (3-(4-chloro-1-(2-(4-methylpiperazin-1-yl)ethyl)-5-phenyl-1H-pyrazolo[3,4-c]pyridazin-3-yl)phenyl)(pyrrolidin-1-yl)methanone]", "EC50": "≤ 2000"}, {"smiles": "Clc1c(-c2ccccc2)nnc2c1c(-c1ccccc1)nn2Cc1ccncc1", "note": "[IIo, 4-chloro-3,5-diphenyl-1-(4-pyridylmethyl)pyrazolo[3,4-c]pyridazine]", "EC50": "≤ 2000"}, {"smiles": "CN(C)CCNC(=O)Cn1nc(-c2cccnc2)c2c(Cl)c(-c3ccccc3)nnc21", "note": "[Igg, 2-[4-chloro-5-phenyl-3-(3-pyridyl)pyrazolo[3,4-c]pyridazin-1-yl]-N-(2-dimethylaminoethyl)acetamide]", "EC50": "2000 to 5000"}, {"smiles": "Cn1nc(C2CCCC2)c2c(Cl)c(-c3ccccc3)nnc21", "note": "[Compound 27, 4-chloro-3-cyclopentyl-1-methyl-5-phenyl-pyrazolo[3,4-c]pyridazine]", "EC50": "2000 to 5000"}, {"smiles": "FC(F)(F)CCn1nc(-c2ccccc2)c2c(Cl)c(-c3ccccc3)nnc21", "note": "[IId, 4-chloro-3,5-diphenyl-1-(3,3,3-trifluoropropyl)pyrazolo[3,4-c]pyridazine]", "EC50": "≤ 2000"}, {"smiles": "CN1CCN(CCn2nc(/C=C/c3ccccc3)c3c(Cl)c(-c4ccccc4)nnc32)CC1", "note": "[Ig, (E)-4-chloro-1-(2-(4-methylpiperazin-1-yl)ethyl)-5-phenyl-3-styryl-1H-pyrazolo[3,4-c]pyridazine]", "EC50": "≤ 2000"}, {"smiles": "Cc1nn(C)c2nnc(-c3ccccc3)c(Br)c12", "note": "[Compound 23, 4-bromo-1,3-dimethyl-5-phenyl-pyrazolo[3,4-c]pyridazine]", "EC50": "2000 to 5000"}, {"smiles": "Cn1nc(-c2cccnc2)c2c(Cl)c(-c3ccccc3)nnc21", "note": "[Compound 26, 4-chloro-1-methyl-5-phenyl-3-(3-pyridyl)pyrazolo[3,4-c]pyridazine]", "EC50": "≤ 2000"}, {"smiles": "Cn1nc(C2CC2)c2c(Cl)c(-c3ccccc3)nnc21", "note": "[Compound 21, 4-chloro-3-cyclopropyl-1-methyl-5-phenyl-pyrazolo[3,4-c]pyridazine]", "EC50": "2000 to 5000"}, {"smiles": "Cc1n[nH]c2nnc(-c3ccccc3)c(Cl)c12", "note": "[Iu, 4-chloro-3-methyl-5-phenyl-1H-pyrazolo[3,4-c]pyridazine]", "EC50": "2000 to 5000"}, {"smiles": "O=C1CCCN1CCn1nc(-c2cccc(F)c2)c2c(Cl)c(-c3ccccc3)nnc21", "note": "[IIr, 1-[2-[4-chloro-3-(3-fluorophenyl)-5-phenyl-pyrazolo[3,4-c]pyridazin-1-yl]ethyl]pyrrolidin-2-one]", "EC50": "≤ 2000"}, {"smiles": "CN1CCN(CCn2nc(I)c3c(Cl)c(-c4ccccc4)nnc32)CC1", "note": "[Ia, 4-Chloro-3-iodo-1-(2-(4-methylpiperazin-1-yl)ethyl)-5-phenyl-1H-pyrazolo[3,4-c]pyridazine]", "EC50": "≤ 2000"}, {"smiles": "O=C(Cn1nc(C2=CCCC2)c2c(Cl)c(-c3ccccc3)nnc21)N1CCCC1", "note": "[In, 2-(4-chloro-3-(cyclopent-1-en-1-yl)-5-phenyl-1H-pyrazolo[3,4-c]pyridazin-1-yl)-1-(pyrrolidin-1-yl)ethanone]", "EC50": "≤ 2000"}, {"smiles": "Cn1nc(-c2ccccc2)c2c(Cl)c(-c3cccnc3)nnc21", "note": "[IIId, 4-chloro-1-methyl-3-phenyl-5-(3-pyridyl)pyrazolo[3,4-c]pyridazine]", "EC50": "≤ 2000"}, {"smiles": "Cc1nn(C)c2nnc(-c3ccccc3)c(Cl)c12", "note": "[Compound 22, 4-chloro-1,3-dimethyl-5-phenyl-pyrazolo[3,4-c]pyridazine]", "EC50": "≤ 2000"}]}]}
